# From patent US6706740B2, “Fungicidal heterocyclic aromatic amides and their compositions, methods of use and preparation” (Dow AgroSciences LLC, priority 1999, dated 2004)
# Tested on: not given
# Assay: not given
# Conditions: not given
row,SMILES,melting point [°C]
1,CC(=O)OC1CCC(NC(=O)c2ncccc2O)CC1 (stereo not drawn) [Compound 209],123 to 126
2,O=C(Nc1ccc(Oc2ccccc2)cc1)c1cccnc1O [Compound 522],223 to 224
3,COc1ccnc(C(=O)N[C@@H]2CC(C)(C)C[C@](C)(C(=O)N(C)CCc3ccccc3)C2)c1O [Compound 262],59 to 60
4,CSc1nnc(C(=O)NC2CCCCCCC2)c(O)n1 [Compound 546],208 to 213
5,COc1cccc(CNC(=O)c2cccnc2O)c1OC [Compound 516],193 to 194
6,COc1ccnc(C(=O)Nc2ccc(Nc3cccc(C(F)(F)F)c3)cc2)c1O [Compound 410],204 to 205
7,O=C(NC1CCCCC1)c1cccnc1O [Compound 515],190 to 192

# Tested on: Rhizoctonia solani (RHIZSO)
# Assay: microbe, parasite or virus in culture
# Type: cell-based
# Conditions: Rhizoctonia solani, read-out: RHIZSO in vitro Growth Inhibition
row,SMILES,inhibition at 25 ppm [%]
1,CC(=O)OC1CCC(NC(=O)c2ncccc2O)CC1 (stereo not drawn) [Compound 209],< 80
2,O=C(Nc1ccc(Oc2ccccc2)cc1)c1cccnc1O [Compound 522],< 80
3,COc1ccnc(C(=O)N[C@@H]2CC(C)(C)C[C@](C)(C(=O)N(C)CCc3ccccc3)C2)c1O [Compound 262],< 80
4,CSc1nnc(C(=O)NC2CCCCCCC2)c(O)n1 [Compound 546],< 80
5,COc1cccc(CNC(=O)c2cccnc2O)c1OC [Compound 516],< 80
6,COc1ccnc(C(=O)Nc2ccc(Nc3cccc(C(F)(F)F)c3)cc2)c1O [Compound 410],< 80
7,O=C(NC1CCCCC1)c1cccnc1O [Compound 515],< 80

# Tested on: Leptosphaeria nodorum—LEPTNO
# Assay: Glume Blotch of Wheat, in vivo whole plant, 24 Hour Protectant
# Conditions: Leptosphaeria; 100 ppm spray, 24 hour protectant, wheat; control of fungal infection vs untreated plants; read-out: LEPTNO in vivo 1 Day Protectant
row,SMILES,pest or weed control at 100 ppm [%]
1,CC(=O)OC1CCC(NC(=O)c2ncccc2O)CC1 (stereo not drawn) [Compound 209],< 25
2,COc1ccnc(C(=O)N[C@@H]2CC(C)(C)C[C@](C)(C(=O)N(C)CCc3ccccc3)C2)c1O [Compound 262],25 to 74

# Same assay, conditions: Leptosphaeria; 100 ppm spray, wheat, 24 hour protectant; control of fungal infection vs untreated plants; read-out: LEPTNO in vivo 1 Day Protectant
row,SMILES,pest or weed control at 100 ppm [%]
1,COc1ccnc(C(=O)Nc2ccc(Nc3cccc(C(F)(F)F)c3)cc2)c1O [Compound 410],25 to 74

# Same assay, conditions: Leptosphaeria; wheat plants sprayed at 100 ppm, inoculated after 24 hours; control of fungal infection vs untreated plants; read-out: LEPTNO in vivo 1 Day Protectant
row,SMILES,pest or weed control at 100 ppm [%]
1,CSc1nnc(C(=O)NC2CCCCCCC2)c(O)n1 [Compound 546],25 to 74
2,COc1cccc(CNC(=O)c2cccnc2O)c1OC [Compound 516],< 25
3,O=C(NC1CCCCC1)c1cccnc1O [Compound 515],< 25

# Same assay, conditions: wheat plants sprayed at 100 ppm, inoculated after 24 hours; control of fungal infection vs untreated plants
row,SMILES,LEPTNO in vivo 1 Day Protectant
1,O=C(Nc1ccc(Oc2ccccc2)cc1)c1cccnc1O [Compound 522],+ +

# Tested on: Erysiphe graminis—ERYSGT
# Assay: Powdery Mildew of Wheat, in vivo whole plant, 24 Hour Protectant
# Conditions: Erysiphe; 100 ppm spray, 24 hour protectant, wheat; control of fungal infection vs untreated plants; read-out: ERYSGT in vivo 1 Day Protectant
row,SMILES,pest or weed control at 100 ppm [%]
1,CC(=O)OC1CCC(NC(=O)c2ncccc2O)CC1 (stereo not drawn) [Compound 209],< 25
2,COc1ccnc(C(=O)N[C@@H]2CC(C)(C)C[C@](C)(C(=O)N(C)CCc3ccccc3)C2)c1O [Compound 262],< 25

# Same assay, conditions: Erysiphe; 100 ppm spray, wheat, 24 hour protectant; control of fungal infection vs untreated plants; read-out: ERYSGT in vivo 1 Day Protectant
row,SMILES,pest or weed control at 100 ppm [%]
1,COc1ccnc(C(=O)Nc2ccc(Nc3cccc(C(F)(F)F)c3)cc2)c1O [Compound 410],< 25

# Same assay, conditions: Erysiphe; wheat plants sprayed at 100 ppm, inoculated after 24 hours; control of fungal infection vs untreated plants; read-out: ERYSGT in vivo 1 Day Protectant
row,SMILES,pest or weed control at 100 ppm [%]
1,O=C(Nc1ccc(Oc2ccccc2)cc1)c1cccnc1O [Compound 522],< 25
2,CSc1nnc(C(=O)NC2CCCCCCC2)c(O)n1 [Compound 546],< 25
3,COc1cccc(CNC(=O)c2cccnc2O)c1OC [Compound 516],< 25
4,O=C(NC1CCCCC1)c1cccnc1O [Compound 515],< 25

# Tested on: Puccinia recondita—PUCCRT
# Assay: Brown Rust of Wheat, in vivo whole plant, 24 Hour Protectant
# Conditions: Puccinia; 100 ppm spray, 24 hour protectant, wheat; control of fungal infection vs untreated plants; read-out: PUCCRT in vivo 1 Day Protectant
row,SMILES,pest or weed control at 100 ppm [%]
1,CC(=O)OC1CCC(NC(=O)c2ncccc2O)CC1 (stereo not drawn) [Compound 209],< 25
2,COc1ccnc(C(=O)N[C@@H]2CC(C)(C)C[C@](C)(C(=O)N(C)CCc3ccccc3)C2)c1O [Compound 262],< 25

# Same assay, conditions: Puccinia; 100 ppm spray, wheat, 24 hour protectant; control of fungal infection vs untreated plants; read-out: PUCCRT in vivo 1 Day Protectant
row,SMILES,pest or weed control at 100 ppm [%]
1,COc1ccnc(C(=O)Nc2ccc(Nc3cccc(C(F)(F)F)c3)cc2)c1O [Compound 410],< 25

# Same assay, conditions: Puccinia; wheat plants sprayed at 100 ppm, inoculated after 24 hours; control of fungal infection vs untreated plants; read-out: PUCCRT in vivo 1 Day Protectant
row,SMILES,pest or weed control at 100 ppm [%]
1,O=C(Nc1ccc(Oc2ccccc2)cc1)c1cccnc1O [Compound 522],< 25
2,CSc1nnc(C(=O)NC2CCCCCCC2)c(O)n1 [Compound 546],25 to 74
3,COc1cccc(CNC(=O)c2cccnc2O)c1OC [Compound 516],< 25
4,O=C(NC1CCCCC1)c1cccnc1O [Compound 515],< 25

# Tested on: Phytophthora infestans (PHYTIN)
# Assay: microbe, parasite or virus in culture
# Type: cell-based
# Conditions: Phytophthora infestans, read-out: PHYTIN in vitro Growth Inhibition
row,SMILES,inhibition at 25 ppm [%]
1,CC(=O)OC1CCC(NC(=O)c2ncccc2O)CC1 (stereo not drawn) [Compound 209],< 80
2,O=C(Nc1ccc(Oc2ccccc2)cc1)c1cccnc1O [Compound 522],< 80
3,COc1ccnc(C(=O)N[C@@H]2CC(C)(C)C[C@](C)(C(=O)N(C)CCc3ccccc3)C2)c1O [Compound 262],< 80
4,CSc1nnc(C(=O)NC2CCCCCCC2)c(O)n1 [Compound 546],> 80
5,COc1cccc(CNC(=O)c2cccnc2O)c1OC [Compound 516],< 80
6,COc1ccnc(C(=O)Nc2ccc(Nc3cccc(C(F)(F)F)c3)cc2)c1O [Compound 410],< 80
7,O=C(NC1CCCCC1)c1cccnc1O [Compound 515],< 80

# Tested on: Ustilago maydis (USTIMA)
# Assay: microbe, parasite or virus in culture
# Type: cell-based
# Conditions: Mycosarcoma maydis, read-out: USTIMA in vitro Growth Inhibition
row,SMILES,inhibition at 25 ppm [%]
1,CC(=O)OC1CCC(NC(=O)c2ncccc2O)CC1 (stereo not drawn) [Compound 209],< 80
2,O=C(Nc1ccc(Oc2ccccc2)cc1)c1cccnc1O [Compound 522],< 80
3,COc1ccnc(C(=O)N[C@@H]2CC(C)(C)C[C@](C)(C(=O)N(C)CCc3ccccc3)C2)c1O [Compound 262],< 80
4,CSc1nnc(C(=O)NC2CCCCCCC2)c(O)n1 [Compound 546],< 80
5,COc1cccc(CNC(=O)c2cccnc2O)c1OC [Compound 516],< 80
6,COc1ccnc(C(=O)Nc2ccc(Nc3cccc(C(F)(F)F)c3)cc2)c1O [Compound 410],< 80
7,O=C(NC1CCCCC1)c1cccnc1O [Compound 515],< 80

# Tested on: Septoria tritici—SEPTTR
# Assay: Leaf Blotch of Wheat, in vivo whole plant, 24 Hour Protectant
# Conditions: Zymoseptoria tritici, 24 h, 100 ppm spray, 24 hour protectant, wheat; control of fungal infection vs untreated plants; read-out: SEPTTR in vivo 1 Day Protectant
row,SMILES,pest or weed control at 100 ppm [%]
1,CC(=O)OC1CCC(NC(=O)c2ncccc2O)CC1 (stereo not drawn) [Compound 209],25 to 74
2,COc1ccnc(C(=O)N[C@@H]2CC(C)(C)C[C@](C)(C(=O)N(C)CCc3ccccc3)C2)c1O [Compound 262],25 to 74

# Same assay, conditions: Zymoseptoria tritici, 24 h, 100 ppm spray, wheat, 24 hour protectant; control of fungal infection vs untreated plants; read-out: SEPTTR in vivo 1 Day Protectant
row,SMILES,pest or weed control at 100 ppm [%]
1,COc1ccnc(C(=O)Nc2ccc(Nc3cccc(C(F)(F)F)c3)cc2)c1O [Compound 410],< 25

# Same assay, conditions: Zymoseptoria tritici, 24 h, wheat plants sprayed at 100 ppm, inoculated after 24 hours; control of fungal infection vs untreated plants; read-out: SEPTTR in vivo 1 Day Protectant
row,SMILES,pest or weed control at 100 ppm [%]
1,O=C(Nc1ccc(Oc2ccccc2)cc1)c1cccnc1O [Compound 522],< 25
2,CSc1nnc(C(=O)NC2CCCCCCC2)c(O)n1 [Compound 546],25 to 74
3,COc1cccc(CNC(=O)c2cccnc2O)c1OC [Compound 516],< 25
4,O=C(NC1CCCCC1)c1cccnc1O [Compound 515],25 to 74

# Tested on: Stagonospora nodorum (Leptosphaeria nodorum—LEPTNO)
# Assay: In vitro fungal growth inhibition, Stagonospora nodorum (LEPTNO)
# Type: cell-based
# Conditions: Leptosphaeria; 25 ppm in growth medium; read-out: LEPTNO in vitro Growth Inhibition
row,SMILES,inhibition at 25 ppm [%]
1,CC(=O)OC1CCC(NC(=O)c2ncccc2O)CC1 (stereo not drawn) [Compound 209],< 80
2,COc1ccnc(C(=O)N[C@@H]2CC(C)(C)C[C@](C)(C(=O)N(C)CCc3ccccc3)C2)c1O [Compound 262],< 80
3,COc1ccnc(C(=O)Nc2ccc(Nc3cccc(C(F)(F)F)c3)cc2)c1O [Compound 410],< 80

# Same assay, conditions: Leptosphaeria; 25 ppm in the growth medium; read-out: LEPTNO in vitro Growth Inhibition
row,SMILES,inhibition at 25 ppm [%]
1,O=C(Nc1ccc(Oc2ccccc2)cc1)c1cccnc1O [Compound 522],< 80
2,CSc1nnc(C(=O)NC2CCCCCCC2)c(O)n1 [Compound 546],< 80
3,COc1cccc(CNC(=O)c2cccnc2O)c1OC [Compound 516],< 80
4,O=C(NC1CCCCC1)c1cccnc1O [Compound 515],< 80

# Tested on: Phytophthora infestans—PHYTIN
# Assay: whole plant or invertebrate
# Type: in vivo
# Conditions: Phytophthora, in Solanum lycopersicum, 24 h, read-out: PHYTIN in vivo 1 Day Protectant
row,SMILES,pest or weed control at 100 ppm [%]
1,CC(=O)OC1CCC(NC(=O)c2ncccc2O)CC1 (stereo not drawn) [Compound 209],< 25
2,O=C(Nc1ccc(Oc2ccccc2)cc1)c1cccnc1O [Compound 522],< 25
3,COc1ccnc(C(=O)N[C@@H]2CC(C)(C)C[C@](C)(C(=O)N(C)CCc3ccccc3)C2)c1O [Compound 262],< 25
4,CSc1nnc(C(=O)NC2CCCCCCC2)c(O)n1 [Compound 546],< 25
5,COc1cccc(CNC(=O)c2cccnc2O)c1OC [Compound 516],< 25
6,COc1ccnc(C(=O)Nc2ccc(Nc3cccc(C(F)(F)F)c3)cc2)c1O [Compound 410],< 25
7,O=C(NC1CCCCC1)c1cccnc1O [Compound 515],< 25

# Tested on: Magnaporthe grisea (Pyricularia oryzae—PYRIOR)
# Assay: microbe, parasite or virus in culture
# Type: cell-based
# Conditions: Pyricularia oryzae, read-out: PYRIOR in vitro Growth Inhibition
row,SMILES,inhibition at 25 ppm [%]
1,CC(=O)OC1CCC(NC(=O)c2ncccc2O)CC1 (stereo not drawn) [Compound 209],< 80
2,O=C(Nc1ccc(Oc2ccccc2)cc1)c1cccnc1O [Compound 522],< 80
3,COc1ccnc(C(=O)N[C@@H]2CC(C)(C)C[C@](C)(C(=O)N(C)CCc3ccccc3)C2)c1O [Compound 262],< 80
4,CSc1nnc(C(=O)NC2CCCCCCC2)c(O)n1 [Compound 546],< 80
5,COc1cccc(CNC(=O)c2cccnc2O)c1OC [Compound 516],< 80
6,COc1ccnc(C(=O)Nc2ccc(Nc3cccc(C(F)(F)F)c3)cc2)c1O [Compound 410],< 80
7,O=C(NC1CCCCC1)c1cccnc1O [Compound 515],< 80

# Tested on: Mycosphaerella graminicola (Septoria tritici—SEPTTR)
# Assay: In vitro fungal growth inhibition, Mycosphaerella graminicola (SEPTTR)
# Type: cell-based
# Conditions: Zymoseptoria tritici; 25 ppm in growth medium; read-out: SEPTTR in vitro Growth Inhibition
row,SMILES,inhibition at 25 ppm [%]
1,CC(=O)OC1CCC(NC(=O)c2ncccc2O)CC1 (stereo not drawn) [Compound 209],< 80
2,COc1ccnc(C(=O)N[C@@H]2CC(C)(C)C[C@](C)(C(=O)N(C)CCc3ccccc3)C2)c1O [Compound 262],< 80
3,COc1ccnc(C(=O)Nc2ccc(Nc3cccc(C(F)(F)F)c3)cc2)c1O [Compound 410],< 80

# Same assay, conditions: Zymoseptoria tritici; 25 ppm in the growth medium; read-out: SEPTTR in vitro Growth Inhibition
row,SMILES,inhibition at 25 ppm [%]
1,O=C(Nc1ccc(Oc2ccccc2)cc1)c1cccnc1O [Compound 522],< 80
2,CSc1nnc(C(=O)NC2CCCCCCC2)c(O)n1 [Compound 546],< 80
3,COc1cccc(CNC(=O)c2cccnc2O)c1OC [Compound 516],< 80
4,O=C(NC1CCCCC1)c1cccnc1O [Compound 515],< 80
